Conditions: 250 mg portions of each compound as filter; smoke from one cigarette drawn through 3 mls of distilled water; read at 405 nm; compared with control cigarette
Description: The treated fibers were then dried overnight at 37 C. The smoke from one cigarette was drawn through the filter material and then through 3 mls of distilled water using a water-pipe smoking device which was constructed from a 25 ml glass Erlenmeyer flask attached to a vacuum source with an air flow rate of approximately 35 ml/min. Three 100 microliter aliquots were removed from each flask, placed into ELISA plate wells and read in an ELISA plate reader at 405 nm. The percentage or tar removed is based on a comparison between the cigarette comprising the filter containing the test agent and an appropriate control cigarette.
The treated fibers were dried at 37 C overnight and then made into a tobacco cigarette using a tube cigarette maker. The smoke from 1 of each type of filter cigarette was then drawn through 3 mls of distilled water using a water-pipe smoking device which was constructed from a small (25 ml) glass Erlenmeyer flask attached to a vacuum source with an air flow rate of approximately 35 ml/min. Three 100 microliter aliquots were removed from each flask, placed into ELISA plated wells and read in an ELISA plate reader at 405 nm.

Compound	% TAR REMOVAL [%]
O=C1NC(=O)C(=O)C(=O)N1 [Alloxan]	96.9
O=Cc1ccccc1C=O [O-phthaldialdehyde]	84
O=Cc1cccc(OCCOc2cccc(C=O)c2)c1 [Ethylenedioxybis(3-benzaldehyde)]	19.3
O=C1c2ccccc2C(=O)C1(O)C1(O)C(=O)c2ccccc2C1=O [Hydrindantin]	95
CC1(C)CC(=O)CC(=O)C1 [(5,5-dimethyl-1,3-cyclohexanedione, 5,5-dimethyl-1,3-cyclohexanedione]	26
CC(C)(C)OC(=O)NCCCCCC(=O)ON1C(=O)CCC1=O [BOC-ε-aminocaproic acid-N-hydroxysuccinimide ester]	74
C[C@H](NC(=O)OC(C)(C)C)C(=O)ON1C(=O)CCC1=O [N-α-t-BOC-L-alanine-N-hydroxysuccinimide ester]	25
O=C(C=CC=Cc1ccccc1)C=CC=Cc1ccccc1 [Dicinnamalacetone]	98.1
CC12CCC(C(=O)C1=O)C2(C)C (stereo not shown) [Camphorquinone]	53.9
O=C1c2ccccc2C(=O)C1(O)O [Ninhydrin]	83
O=CC(=O)c1ccccc1 [Phenylglyoxal]	53
O=C1C=C2CC3(O)COc4c(ccc(O)c4O)C3=C2C=C1O (stereo not shown) [Hematein, 6a,7-dihydro-3,4,6a,10 tetrahydroxyben[b]indeno[1,2-d]pyran-9(6H)-one]	48.7
O=C(/C=C/C(=O)c1ccccc1)c1ccccc1 [Fumarophenone]	87.5

— patent publication EP1309253B1, “METHODS AND DEVICES FOR REMOVING NU[…] FROM TOBACCO AND TOBACCO SMOKE” (Cerami Consulting Corporation, priority 2000, dated 2002)
